One test deals with NF-κB pathway. In words: TNF-α assay (THP-1 cells differentiated to macrophages with IFN-γ, NF-κB pathway activated with LPS; ELISA). The note with it: Homo sapiens, THP-1, THP-1 macrophages, compound 30 min, 50 ng/mL LPS 3 hours. The test is classed as cell-based, Human. The method, boiled down:
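TNF-α release measured by ELISA after 3 h stimulation with 50 ng/mL LPS, following 30 min compound pretreatment (37 °C, no FBS). Cells were THP-1 macrophages primed with IFN-γ 25 ng/mL for 24 h. IC50 derived by logistic curve fit.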

A further test has as its target T1, NLRP3 inflammasome (Homo sapiens, UniProt Q96P20).
T1 construct: IL-1beta HTRF
In words: IL-1β TR-FRET assay (THP-1 cells differentiated to macrophages with IFN-γ, LPS primed, ATP activated; HTRF). Type of test: cell-based. To be noted: THP-1 macrophages, 50 ng/mL LPS priming, compound 30 min, 20 mM ATP 2 hours. In outline: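 IL-1β release was read by HTRF after 16–24 h antibody incubation at room temperature, using supernatants from THP-1-derived macrophages (IFN-γ 25 ng/mL, LPS 50 ng/mL priming) given compound 30 min and then 20 mM ATP for 2 h. % inhibition versus concentration was fitted logistically for IC50.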

T1 sequence (Q96P20 whole entry): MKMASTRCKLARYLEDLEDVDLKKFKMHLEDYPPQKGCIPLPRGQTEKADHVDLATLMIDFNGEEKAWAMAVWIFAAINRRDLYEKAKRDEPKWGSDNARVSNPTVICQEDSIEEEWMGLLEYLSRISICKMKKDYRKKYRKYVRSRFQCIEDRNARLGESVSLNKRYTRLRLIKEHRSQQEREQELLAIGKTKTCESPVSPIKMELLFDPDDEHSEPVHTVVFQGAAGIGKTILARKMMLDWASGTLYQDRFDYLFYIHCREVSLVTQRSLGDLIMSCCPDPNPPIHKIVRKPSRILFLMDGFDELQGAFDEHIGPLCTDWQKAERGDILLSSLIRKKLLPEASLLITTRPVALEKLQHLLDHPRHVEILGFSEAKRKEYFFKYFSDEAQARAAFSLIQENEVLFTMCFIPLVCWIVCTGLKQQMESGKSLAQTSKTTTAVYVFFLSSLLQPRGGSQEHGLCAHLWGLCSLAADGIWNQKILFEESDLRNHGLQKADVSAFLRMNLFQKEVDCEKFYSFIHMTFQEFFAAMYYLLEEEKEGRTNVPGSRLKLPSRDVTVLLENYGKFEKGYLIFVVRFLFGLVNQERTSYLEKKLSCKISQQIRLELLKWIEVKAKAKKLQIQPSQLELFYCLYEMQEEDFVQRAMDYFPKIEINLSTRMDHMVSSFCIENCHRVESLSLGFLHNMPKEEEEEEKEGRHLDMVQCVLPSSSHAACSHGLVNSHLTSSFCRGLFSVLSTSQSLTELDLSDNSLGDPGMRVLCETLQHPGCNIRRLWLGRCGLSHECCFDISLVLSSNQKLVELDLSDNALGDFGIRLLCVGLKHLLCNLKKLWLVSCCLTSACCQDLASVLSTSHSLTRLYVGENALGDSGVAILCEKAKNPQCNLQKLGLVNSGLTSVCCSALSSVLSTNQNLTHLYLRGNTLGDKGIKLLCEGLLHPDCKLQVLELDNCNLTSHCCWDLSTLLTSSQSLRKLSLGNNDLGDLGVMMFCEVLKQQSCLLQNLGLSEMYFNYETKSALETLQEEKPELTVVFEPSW

In the case of `Cc1cc(O)c(-n2cc3sc(N[C@@H]4C[C@@H](F)CN(C)C4)nc3n2)c(C(C)C)c1` [Example 94, 2-(5-{[(3R,5R)-5-fluoro-1-methylpiperidin-3-yl]amino}-2H-pyrazolo[3,4-d][1,3]thiazol-2-yl)-5-methyl-3-(propan-2-yl)phenol], the IC50 was more than 30000 nM in the test with NF-κB pathway and 31 nM against NLRP3 inflammasome.
The like results for `Cc1cc(C)c(-n2cc3sc(NC4CC(=O)N(C)C4)nc3n2)c(O)c1` (stereo not drawn) [Example 95, 4-{[2-(2-hydroxy-4,6-dimethylphenyl)-2H-pyrazolo[3,4-d][1,3]thiazol-5-yl]amino}-1-methylpyrrolidin-2-one] were, in that order, more than 30000 nM and 1300 nM.
For `Cc1cc(C)c(-n2cc3sc(NC4CCN(C(=O)C5CC5)C4)nc3n2)c(O)c1` (stereo not drawn) [Example 96, cyclopropyl(3-{[2-(2-hydroxy-4,6-dimethylphenyl)-2H-pyrazolo[3,4-d][1,3]thiazol-5-yl]amino}pyrrolidin-1-yl)methanone], in that order: more than 30000 nM and 400 nM.
Take `Cc1cc(C)c(-n2cc3sc(NC4CCN(C(=O)CC5CC5)C4)nc3n2)c(O)c1` (stereo not drawn) [Example 97, 2-cyclopropyl-1-(3-{[2-(2-hydroxy-4,6-dimethylphenyl)-2H-pyrazolo[3,4-d][1,3]thiazol-5-yl]amino}pyrrolidin-1-yl)ethan-1-one]: the IC50 in the test with NF-κB pathway is more than 10000 nM; against NLRP3 inflammasome, 260 nM.
For `Cc1cc(C)c(-n2cc3sc(NC4CCN(C(=O)C5(F)CC5)C4)nc3n2)c(O)c1` (stereo not drawn) [Example 98, (1-fluorocyclopropyl)(3-{[2-(2-hydroxy-4,6-dimethylphenyl)-2H-pyrazolo[3,4-d][1,3]thiazol-5-yl]amino}pyrrolidin-1-yl)methanone], in that order: more than 30000 nM and 460 nM.
The like results for `Cc1cc(C)c(-n2cc3sc(NC4CCN(C(=O)C5(C#N)CC5)C4)nc3n2)c(O)c1` (stereo not drawn) [Example 99, 1-(3-{[2-(2-hydroxy-4,6-dimethylphenyl)-2H-pyrazolo[3,4-d][1,3]thiazol-5-yl]amino}pyrrolidine-1-carbonyl)cyclopropane-1-carbonitrile] were, in that order, more than 30000 nM and 250 nM.
On to `Cc1cc(C)c(-n2cc3sc(NC4CCN(S(C)(=O)=O)C4)nc3n2)c(O)c1` (stereo not drawn) [Example 100, 2-(5-{[1-(methanesulfonyl)pyrrolidin-3-yl]amino}-2H-pyrazolo[3,4-d][1,3]thiazol-2-yl)-3,5-dimethylphenol], for which the IC50 with NF-κB pathway is more than 30000 nM; against NLRP3 inflammasome, 620 nM.
For `Cc1cc(C)c(-n2cc3sc(NC4CCN(S(=O)(=O)C5CC5)C4)nc3n2)c(O)c1` (stereo not drawn) [Example 101, 2-(5-{[1-(cyclopropanesulfonyl)pyrrolidin-3-yl]amino}-2H-pyrazolo[3,4-d][1,3]thiazol-2-yl)-3,5-dimethylphenol], in that order: more than 30000 nM and 420 nM.
`Cc1cc(C)c(-n2cc3sc(NC4CCN(C(=O)C(C)(C)O)C4)nc3n2)c(O)c1` (stereo not drawn) [Example 102, 2-hydroxy-1-(3-{[2-(2-hydroxy-4,6-dimethylphenyl)-2H-pyrazolo[3,4-d][1,3]thiazol-5-yl]amino}pyrrolidin-1-yl)-2-methylpropan-1-one]: the results for the IC50 in the test on NF-κB pathway and on NLRP3 inflammasome were more than 30000 nM and 280 nM, respectively.
The like results for `Cc1cc(C)c(-n2cc3sc(NC4CCN(C)C4=O)nc3n2)c(O)c1` (stereo not drawn) [Example 103, 3-{[2-(2-hydroxy-4,6-dimethylphenyl)-2H-pyrazolo[3,4-d][1,3]thiazol-5-yl]amino}-1-methylpyrrolidin-2-one] were, in that order, more than 30000 nM and 810 nM.
The like results for `Cc1cc(OC(F)F)cc(O)c1-n1cc2sc(N[C@@H]3C[C@@H](F)CN(C)C3)nc2n1` [Example 107, 5-(difluoromethoxy)-2-(5-{[(3R,5R)-5-fluoro-1-methylpiperidin-3-yl]amino}-2H-pyrazolo[3,4-d][1,3]thiazol-2-yl)-3-methylphenol] were, in that order, more than 30000 nM and 75 nM.
For `CC(=O)N1CCCC(Nc2nc3nn(-c4c(C)cc(C)cc4O)cc3s2)C1` (stereo not drawn) [Example 108, 1-(3-{[2-(2-hydroxy-4,6-dimethylphenyl)-2H-pyrazolo[3,4-d][1,3]thiazol-5-yl]amino}piperidin-1-yl)ethan-1-one], in that order: more than 30000 nM and 610 nM.
Regarding `CCC(=O)N1CCCC(Nc2nc3nn(-c4c(C)cc(C)cc4O)cc3s2)C1` (stereo not drawn) [Example 109, 1-(3-{[2-(2-hydroxy-4,6-dimethylphenyl)-2H-pyrazolo[3,4-d][1,3]thiazol-5-yl]amino}piperidin-1-yl)propan-1-one], the IC50 in the test on NF-κB pathway is more than 30000 nM; against NLRP3 inflammasome, 590 nM.
For `COC(=O)N1CCCC(Nc2nc3nn(-c4c(C)cc(C)cc4O)cc3s2)C1` (stereo not drawn) [Example 110, methyl 3-{[2-(2-hydroxy-4,6-dimethylphenyl)-2H-pyrazolo[3,4-d][1,3]thiazol-5-yl]amino}piperidine-1-carboxylate], in that order: more than 30000 nM and 990 nM.
As to `CNC(=O)N1CCCC(Nc2nc3nn(-c4c(C)cc(C)cc4O)cc3s2)C1` (stereo not drawn) [Example 111, 3-{[2-(2-hydroxy-4,6-dimethylphenyl) 2H-pyrazolo[3,4-d][1,3]thiazol-5-yl]amino}-N-methyl-piperidine-1-carboxamide], the IC50 in the test with NF-κB pathway was more than 30000 nM; against NLRP3 inflammasome, 810 nM.
For `Cc1cc(C)c(-n2cc3sc(NC4CCCN(S(C)(=O)=O)C4)nc3n2)c(O)c1` (stereo not drawn) [Example 112, 2-(5-{[1-(methanesulfonyl)piperidin-3-yl]amino}-2H-pyrazolo[3,4-d][1,3]thiazol-2-yl)-3,5-dimethylphenol], in that order: more than 10000 nM and 550 nM.
The like results for `Cc1cc(C)c(-n2cc3sc(NC4CCCN(C(=O)CC(F)F)C4)nc3n2)c(O)c1` (stereo not drawn) [Example 113, 3,3-difluoro-1-(3-{[2-(2-hydroxy-4,6-dimethylphenyl)-2H-pyrazolo[3,4-d][1,3]thiazol-5-yl]amino}piperidin-1-yl)propan-1-one] were, in that order, more than 30000 nM and 510 nM.
For `COC(C)(C)CNc1nc2nn(-c3c(C)cc(C)cc3O)cc2s1` [Example 114, 2-{5-[(2-methoxy-2-methylpropyl)amino]-2H-pyrazolo[3,4-d][1,3]thiazol-2-yl}-3,5-dimethylphenol], in that order: more than 10000 nM and 1000 nM.
Take `Cc1cc(C)c(-n2cc3sc(NC4CCC(=O)N(C)C4)nc3n2)c(O)c1` (stereo not drawn) [Example 115, 5-{[2-(2-hydroxy-4,6-dimethylphenyl)-2H-pyrazolo[3,4-d][1,3]thiazol-5-yl]amino}-1-methylpiperidin-2-one]: the IC50 was more than 30000 nM with NF-κB pathway and 490 nM on NLRP3 inflammasome.
For `Cc1cc(C)c(-n2cc3sc(NC[C@@H]4CCCO4)nc3n2)c(O)c1` [Example 116, 3,5-dimethyl-2-[5-({[(2S)-oxolan-2-yl]methyl}amino)-2H-pyrazolo[3,4-d][1,3]thiazol-2-yl]phenol], in that order: more than 30000 nM and 1100 nM.
The like results for `Cc1cc(C)c(-n2cc3sc(NC[C@H]4CCCO4)nc3n2)c(O)c1` [Example 117, 3,5-dimethyl-2-[5-({[(2R)-oxolan-2-yl]methyl}amino)-2H-pyrazolo[3,4-d][1,3]thiazol-2-yl]phenol] were, in that order, more than 10000 nM and 1300 nM.
